Experimental data taken from patent US11058665B2, “Methods for treating brain metastasis” (MEMORIAL SLOAN-KETTERING CANCER CENTER, priority 2014, dated 2021).
Counter-ions that a name gives are not always drawn.

Key:
[1] = test system: gap junction dye transfer from astrocytes to MDA231-BrM2 cells; experiment: Dye transfer assay (calcein) from astrocytes to cancer cells, flow cytometry; type: cell-based, human; details: for dye transfer from astrocytes to cancer cells: MDA231-BrM2 cells, flow cytometry, FIG. 5a
Protocol: Dye Transfer and EdU Transfer Assays.
Monolayers of cancer cells or astrocytes were labeled with 2.5 gig/ml calcein Red-Orange AM dye (Life Technologies) at 37° C. for 30 min. Single cell suspensions were mixed at a ratio of 2:1 labeled:unlabeled cells for 6 h. Certain experiments used a mix of three cell populations, MDA231-BrM2 (GFP+), HBMEC (pre-labeled with Cell Proliferating Dye Fluor@670, eBioscience), and unlabeled astrocytes. Dye transfer was visualized by Zeiss LSM 5 Live confocal microscopy (20-min time-lapse) or quantified by FACSCalibur flow cytometry (BD Biosciences) at different time points. For DNA transfer assays, cancer cells were labeled overnight with EdU (10 μM, Molecular Probes) and maintained in culture for additional 3 days. Single cell suspensions of labeled cancer cells and astrocytes were mixed at 2:1 ratio for 6 h. EdU transfer was visualized using Zeiss LSM 5 Live confocal microscopy or quantified by FACSCalibur flow cytometry (BD Biosciences) following the manufacturer's instructions (Molecular Probes).

[2] = test system: release of IFNα and TNFα in co-cultures of astrocytes and cancer cells; experiment: ELISA of IFNα and TNFα in conditioned media from MDA231-BrM2 cell and astrocyte co-cultures; type: cell-based, human; details: FIG. 5b
Protocol: Cancer Cell and Astrocyte Co-Culture Experiments.
Astrocytes and cancer cells were mixed at ratio of 1:1. For apoptosis assays, overnight co-cultures were treated with 500 ng/ml sFasL (Peprotech) in serum free media, 500 nM carboplatin (Sigma-Aldrich) or 25 nM Paclitaxel (Sigma-Aldrich) for 24 h. Single cell suspensions were stained with APC-conjugated cleaved caspase 3 antibody (Cell Signaling), apoptotic GFP+ cancer cells were detected by flow cytometery. For translating ribosome affinity purification (TRAP), EGFP-L10a expressing cancer cells were co-cultured with astrocytes for 24 h. Following previously published protocols, (Heiman, Schaefer et al. 2008, Zhang, Jin et al. 2013) mRNA purified from cancer cells were was used for library construction with TruSeq RNA Sample Prep Kit v2 (Illumina) following the manufacturer's instructions. Samples were barcoded and run on a Hiseq 2000 platform in a 50 bp/50 bp paired-end run, using the TruSeq SBS Kit v3 (Illumina). An average of 50 million paired reads were generated per sample. For conditioned media analysis, media were collected after 24 h, and cytokines in the conditioned media were either identified using Human Cytokine Array (R&D systems) or measured by IFNα or TNFα ELISA kits (R&D systems). To detect the activity of IFNα or TNFα in the collected conditioned media, cancer cells were treated with the collected conditioned media for 2 h and phosphorylation status of STAT1 or NF-κB p65 was determined by western blotting. For cGAMP and […] activation experiments, cancer cells and astrocytes were co-cultured for 18 h. The phosphorylation status of TBK1, IRF3 was determined by western immunoblotting. Nuclear translocation of IRF3 was determined by immunofluorescence staining with Zeiss LSM 5 Live confocal microscopy. cGAMP levels were determined by LC-MS/MS.

[3] = test system: MDA231-BrM2 cells, H2030-BrM3 cells, KRas/p53-393N1 cells (brain metastases); experiment: Brain metastasis assay, drug given daily from day 1 after arterial inoculation of cancer cells, BLI; type: in vivo; details: treated from day 1; MDA231-BrM2 or H2030-BrM3 in immunodeficient mice, KRas/p53-393N1 in immunocompetent mice; Tonabersat 10 mg/kg/day, meclofenamate 20 mg/kg/day i.p.
Protocol: (§1) All experiments using animals were done in accordance to protocols approved by the MSKCC Institutional Animal Care and Use Committee. Athymic NCR nu/nu mice (NCI-Frederick), Cr:NIH bg-nu-xid mice (NCI-Frederick) and B6129SF1/J mice (Jackson Laboratory) were use at 5-6 weeks of age. For long-term brain metastasis assays we followed previously described procedures (Bos, Nguyen et al. 2010). In brief, 10^4 MDA231-BrM2 cells, 5×10^4 H2030-BrM3 cells, or 10^5 393N1 cells suspended in 100 μl of PBS were injected into the left cardiac ventricle. At the experimental endpoint, anesthetized mice (ketamine 100 mg/kg, xylazine 10 mg/kg) were injected retro-orbitally with D-luciferin (150 mg/kg), and brain colonization was quantified by ex vivo Bio-luminescent imaging (BLI). For short-term (7-day and 14-day) brain metastasis experiments, we injected 5×10^5 cells. TRITC dextran (70 KD) (Life Technologies) was intravenously injected to stain vascular structures. For inducible knockdown experiments, mice were given doxycycline hyclate (Sigma-Aldrich) in the drinking water (2 mg/mL) and the diet (Harlan) 14 days after injection of cancer cells. For lung colonization assays, 2×10^5 MDA231-BrM2 cells in 100 piL PBS were injected into the lateral tail vein. […] BLI was performed using an IVIS Spectrum Xenogen instrument (Caliper Life Sciences) and analysed using Living Image software, v. […]

[4] = test system: MDA231-BrM2 cells as lung metastatic lesions; experiment: Lung colonization assay, MDA231-BrM2 cells, BLI; type: in vivo, mice; details: FIG. 15d; same treatment from day 1
Protocol: as §1

[5] = test system: MDA231-BrM2 cells as orthotopic tumours; experiment: Orthotopic tumour implantation in mammary fat pad, BLI; type: in vivo, mice; details: FIG. 15c, same treatment
Protocol: as §1

[6] = test system: MDA231-BrM2 cells (brain metastatic lesions); experiment: Established brain metastasis treatment, starting 14 days after inoculation with MDA231-BrM2 cells, BLI; type: in vivo, mice; details: for progression of brain metastatic lesions (BLI): treatment from day 14, 35-day end point, Tonabersat 10 mg/kg, meclofenamate 20 mg/kg, carboplatin 50 mg/kg/5 days, FIG. 5h,i
Protocol: All experiments using animals were done in accordance to protocols approved by the MSKCC Institutional Animal Care and Use Committee. Athymic NCR nu/nu mice (NCI-Frederick), Cr:NIH bg-nu-xid mice (NCI-Frederick) and B6129SF1/J mice (Jackson Laboratory) were use at 5-6 weeks of age. For long-term brain metastasis assays we followed previously described procedures (Bos, Nguyen et al. 2010). In brief, 10^4 MDA231-BrM2 cells, 5×10^4 H2030-BrM3 cells, or 10^5 393N1 cells suspended in 100 μl of PBS were injected into the left cardiac ventricle. At the experimental endpoint, anesthetized mice (ketamine 100 mg/kg, xylazine 10 mg/kg) were injected retro-orbitally with D-luciferin (150 mg/kg), and brain colonization was quantified by ex vivo Bio-luminescent imaging (BLI). For short-term (7-day and 14-day) brain metastasis experiments, we injected 5×10^5 cells. TRITC dextran (70 KD) (Life Technologies) was intravenously injected to stain vascular structures. For inducible knockdown experiments, mice were given doxycycline hyclate (Sigma-Aldrich) in the drinking water (2 mg/mL) and the diet (Harlan) 14 days after injection of cancer cells. For lung colonization assays, 2×10^5 MDA231-BrM2 cells in 100 piL PBS were injected into the lateral tail vein. For orthotopic tumour implantation, 5×10^3 cells in 50 piL of 1:1 mix of PBS/growth factor reduced matrigel (BD Biosciences) were injected into the 4th right mammary fat pad of female mice. For drug treatment experiments, mice were intraperitoneally injected with carboplatin (Hospira) (50 mg/kg/5 days), Tonabersat (MedChem Express) (10 mg/kg/day), or meclofenamic acid sodium salt (Sigma-Aldrich) (20 mg/kg/day). Vehicle (10% DMSO in Polyethylene glycol 400) was used in control mice. BLI was performed using an IVIS Spectrum Xenogen instrument (Caliper Life Sciences) and analysed using Living Image software, v. 2.50. For brain metastasis assays, 8-10 mice were used in each group. For drug treatment experiments, mice were inoculated with cancer cells and randomly assigned to treatment groups. Gap junction modulators and chemotherapeutic agents were blindly administered in the MSKCC Antitumour Assessment Core.

[7] = cited from earlier work
[8] = test system: unique stereoselective binding site in astrocytes; details: cited from earlier work
[9] = test system: cortical spreading depression; details: gap-junction-mediated pathophysiological process; cited from earlier work
[10] = test system: trigeminal ganglion neuronal-satellite cell signaling; details: animal models; cited from earlier work
[11] = in vivo; cited from earlier work
[12] = after systemic administration; cited from earlier work
[13] = test system: brain metastases from breast or lung cancer; details: cited from earlier work
[14] = test system: Cx43 gap junction; details: cited from earlier work
[15] = test system: epileptogenesis; details: in vivo; cited from earlier work

SMILES | dye transfer from astrocytes to cancer cells [1] | release of IFNα in co-cultures [2] | release of TNFα in co-cultures [2] | emergence of brain metastases (BLI) [3] | growth of MDA231-BrM2 cells as lung metastatic lesions [4] | growth of MDA231-BrM2 cells as orthotopic tumours [5] | progression of brain metastatic lesions (BLI) [6] | tolerability and safety in patients with migraine ([7]; patients with migraine) | binding to site in astrocytes [8] | cortical spreading depression [9] | trigeminal ganglion neuronal-satellite cell signaling [10] | oral bioavailability [11] | dye transfer from astrocytes to MDA231-BrM2 cells, compared with Cx43 depletion ([1]; Carbenoxolone 50 uM, FIG. 8b) | brain metastasis (BLI) in inducible shRNA experiment ([6]; carboplatin alone 50 mg/kg/5 days starting on day 14, compared with depletion of Cx43 or PCDH7, FIG. 5f,g) | passage of the BBB [12] | overall survival in patients with brain metastases [13] | Cx43 gap junction gating [14] | epileptogenesis in animal models [15] | systemic tolerability ([7]; in vivo)
CC(=O)c1ccc2c(c1)[C@H](NC(=O)c1ccc(F)c(Cl)c1)[C@H](O)C(C)(C)O2 [Tonabersat] | inhibited dye transfer | inhibited | inhibited | prevented the emergence of brain metastases | did not restrict growth | did not restrict growth | significantly inhibited progression of metastatic lesions | systemically well-tolerated and safe | binds to a unique stereoselective binding site in astrocytes | inhibits | inhibits | orally bioavailable | – | – | – | – | – | – | –
CC1(C)[C@@H](OC(=O)CCC(=O)O)CC[C@]2(C)[C@H]3C(=O)C=C4[C@@H]5C[C@@](C)(C(=O)O)CC[C@]5(C)CC[C@@]4(C)[C@]3(C)CC[C@@H]12 [carbenoloxone, carbenoxolone] | – | – | – | – | – | – | – | – | – | – | – | – | extent of dye-transfer inhibition after Cx43 depletion was comparable | – | – | – | – | – | –
N.N.O=C([O-])C1(C(=O)[O-])CCC1.[Pt+2] [carboplatin] | – | – | – | – | – | – | minimally inhibited brain metastasis growth | – | – | – | – | – | – | inhibited brain metastasis to a similar extent as depletion of Cx43 or PCDH7 | crosses the BBB | modest improvement in overall survival | – | – | –
Cc1ccc(Cl)c(Nc2ccccc2C(=O)O)c1Cl [meclofenamate, meclofenamic acid sodium salt] | inhibited dye transfer | inhibited | inhibited | prevented the emergence of brain metastases | did not restrict growth | did not restrict growth | significantly inhibited progression of metastatic lesions | – | – | – | – | orally bioavailable | – | – | passes the BBB | – | inhibits Cx43 gap junction gating | inhibits epileptogenesis | well tolerated systemically
